Columns and labels:
Type in all cases: physicochemical
[1] = Crystallinity by powdery X-ray diffraction (method of Ruland)
Procedure: Crystallinity of powder was measured by the method of Ruland (Acta Crystallographica, Vol. 14, p. 1180, 1961) based on a powdery X-ray diffraction pattern using “[…]”, an X-ray diffractometer (Cu, Kα-ray) commercialized by Rigaku Corp., Tokyo, Japan.

Solidification test = test: Solidification test
Description: A sample in the aluminum cup, taken out after keeping three days in the above hygroscopicity test, was macroscopically observed. Solidification was judged from the appearance of the sample whether it was solidified or not by adsorbing moisture.

Hygroscopicity test = details: 25° C., RH 75.2%
Procedure: (§1) An open aluminum cup containing a sample was placed in a desiccator, set at a RH of 75.2% (equilibrated with a saturated sodium chloride aqueous solution), kept at 25° C. for three days, and then weighted. Hygroscopicity was expressed with percentage (%) of the increased weight to the initial weight of the sample.

[2] = Preservation stability of the powder
Procedure: as §1, with “sample. A sample in the aluminum cup, taken out after keeping three days in the above hygroscopicity test, was macroscopically observed. Solidification was judged from the appearance of the sample whether it was solidified or not by adsorbing moisture.” for “sample.”

| Compound | Crystallinity (%) [1] | solidification (in words) (Solidification test) | hygroscopicity (in words) (Hygroscopicity test) | preservation stability (in words) [2] |
| --- | --- | --- | --- | --- |
| OCC1OC(OC2C(CO)OC(O)C(O)C2O)C(O)C(O)C1O (stereo not drawn) [No. 9, hydrous crystalline β-maltose, reference compound] | 82.6% | no substantial solidification | no hygroscopicity | – |
| OC[C@H]1O[C@H](O[C@H]2[C@H](O)[C@@H](O)[C@H](O)O[C@@H]2CO)[C@H](O)[C@@H](O)[C@@H]1O [No. 10, anhydrous crystalline α-maltose] | 76.3% | heavy solidification | high hygroscopicity | unsatisfactory preservation stability |

— US7183265B2, “Powdery product comprising crystalline β-maltose monohydrate, its preparation, and uses” (priority 2001, dated 2007)
